The supplement of paper PMC11451515

System: NOMO1
Assay: cell viability relative to DMSO control; higher = less cytotoxic
Settings: 48 h
Outline: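 Before seeding, each leukemia line was adapted for at least four passages in each medium. NOMO1 or SEM cells (500 cells/well) and P12-Ichikawa cells (1000 cells/well) went into 1536-well plates at 5 μl, then received library compounds in DMSO by pin dosing across 11 threefold concentrations, 47 μM to 0.79 nM. Readout was CellTiter-Glo One luminescence after 48 h at 37°C, and viability is given as a per-plate percentage of DMSO wells, with cell-free wells as background.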

[1] = HPLM + 10% dialyzed FBS, 0.000781 µM
[2] = HPLM + 10% dialyzed FBS, 0.00234 µM
[3] = HPLM + 10% dialyzed FBS, 0.00702 µM
[4] = HPLM + 10% dialyzed FBS, 0.0211 µM
[5] = HPLM + 10% dialyzed FBS, 0.0632 µM
[6] = HPLM + 10% dialyzed FBS, 0.19 µM
[7] = HPLM + 10% dialyzed FBS, 0.569 µM
[8] = HPLM + 10% dialyzed FBS, 1.71 µM
[9] = HPLM + 10% dialyzed FBS, 5.12 µM
[10] = HPLM + 10% dialyzed FBS, 15.4 µM
[11] = HPLM + 10% dialyzed FBS, 46.1 µM
[12] = RPMI 5 mM glucose + 10% FBS, 0.000781 µM
[13] = RPMI 5 mM glucose + 10% FBS, 0.00234 µM
[14] = RPMI 5 mM glucose + 10% FBS, 0.00702 µM
[15] = RPMI 5 mM glucose + 10% FBS, 0.0211 µM
[16] = RPMI 5 mM glucose + 10% FBS, 0.0632 µM
[17] = RPMI 5 mM glucose + 10% FBS, 0.19 µM
[18] = RPMI 5 mM glucose + 10% FBS, 0.569 µM
[19] = RPMI 5 mM glucose + 10% FBS, 1.71 µM
[20] = RPMI 5 mM glucose + 10% FBS, 5.12 µM
[21] = RPMI 5 mM glucose + 10% FBS, 15.4 µM
[22] = RPMI 5 mM glucose + 10% FBS, 46.1 µM
[23] = RPMI 5 mM glucose + 10% dialyzed FBS, 0.000781 µM
[24] = RPMI 5 mM glucose + 10% dialyzed FBS, 0.00234 µM
[25] = RPMI 5 mM glucose + 10% dialyzed FBS, 0.00702 µM
[26] = RPMI 5 mM glucose + 10% dialyzed FBS, 0.0211 µM
[27] = RPMI 5 mM glucose + 10% dialyzed FBS, 0.0632 µM
[28] = RPMI 5 mM glucose + 10% dialyzed FBS, 0.19 µM
[29] = RPMI 5 mM glucose + 10% dialyzed FBS, 0.569 µM
[30] = RPMI 5 mM glucose + 10% dialyzed FBS, 1.71 µM
[31] = RPMI 5 mM glucose + 10% dialyzed FBS, 5.12 µM
[32] = RPMI 5 mM glucose + 10% dialyzed FBS, 15.4 µM
[33] = RPMI 5 mM glucose + 10% dialyzed FBS, 46.1 µM

C[C@](O)(COc1ccc(C#N)cc1)C(=O)Nc1ccc(C#N)c(C(F)(F)F)c1
cell viability [1]: 83.2%
cell viability [2]: 81.5%
cell viability [3]: 81.2%
cell viability [4]: 95.6%
cell viability [5]: 90.1%
cell viability [6]: 99.1%
cell viability [7]: 90.4%
cell viability [8]: 96%
cell viability [9]: 88.6%
cell viability [10]: 97%
cell viability [11]: 71.2%
cell viability [12]: 72.8%
cell viability [13]: 93.8%
cell viability [14]: 94.4%
cell viability [15]: 85.4%
cell viability [16]: 96.2%
cell viability [17]: 95.3%
cell viability [18]: 103%
cell viability [19]: 96.2%
cell viability [20]: 88.8%
cell viability [21]: 92.8%
cell viability [22]: 75.9%
cell viability [23]: 75.5%
cell viability [24]: 88.7%
cell viability [25]: 86.8%
cell viability [26]: 98.3%
cell viability [27]: 92.5%
cell viability [28]: 97.2%
cell viability [29]: 95.2%
cell viability [30]: 102%
cell viability [31]: 85.2%
cell viability [32]: 92.4%
cell viability [33]: 78.8%

CC1(C)CCC[C@]2(C)[C@H]3CC(=O)O[C@]3(C)CC[C@@H]12
cell viability [1]: 126%
cell viability [2]: 107%
cell viability [3]: 113%
cell viability [4]: 114%
cell viability [5]: 118%
cell viability [6]: 121%
cell viability [7]: 123%
cell viability [8]: 112%
cell viability [9]: 126%
cell viability [10]: 120%
cell viability [11]: 98.6%
cell viability [12]: 119%
cell viability [13]: 111%
cell viability [14]: 118%
cell viability [15]: 121%
cell viability [16]: 107%
cell viability [17]: 112%
cell viability [18]: 129%
cell viability [19]: 98%
cell viability [20]: 111%
cell viability [21]: 110%
cell viability [22]: 81.2%
cell viability [23]: 122%
cell viability [24]: 112%
cell viability [25]: 125%
cell viability [26]: 120%
cell viability [27]: 125%
cell viability [28]: 106%
cell viability [29]: 110%
cell viability [30]: 105%
cell viability [31]: 106%
cell viability [32]: 101%
cell viability [33]: 92.5%

O=C([O-])C(O)Cc1ccc(O)c(O)c1 (stereo not drawn)
cell viability [1]: 100%
cell viability [2]: 91%
cell viability [3]: 108%
cell viability [4]: 95.5%
cell viability [5]: 116%
cell viability [6]: 106%
cell viability [7]: 99.4%
cell viability [8]: 100%
cell viability [9]: 90.8%
cell viability [10]: 74.9%
cell viability [11]: 60.1%
cell viability [12]: 91.8%
cell viability [13]: 83.7%
cell viability [14]: 87.1%
cell viability [15]: 96.5%
cell viability [16]: 91.2%
cell viability [17]: 91.8%
cell viability [18]: 84%
cell viability [19]: 92.5%
cell viability [20]: 87.4%
cell viability [21]: 77.9%
cell viability [22]: 64.3%
cell viability [23]: 96.7%
cell viability [24]: 102%
cell viability [25]: 104%
cell viability [26]: 100%
cell viability [27]: 96.4%
cell viability [28]: 91.4%
cell viability [29]: 100%
cell viability [30]: 84.4%
cell viability [31]: 81.4%
cell viability [32]: 78.5%
cell viability [33]: 65.4%

CN1[C@@H]2CC(OC(=O)[C@@H](CO)c3ccccc3)C[C@H]1[C@H]1O[C@H]12 (stereo partly drawn)
cell viability [1]: 94.8%
cell viability [2]: 120%
cell viability [3]: 108%
cell viability [4]: 124%
cell viability [5]: 103%
cell viability [6]: 104%
cell viability [7]: 106%
cell viability [8]: 95.8%
cell viability [9]: 93.8%
cell viability [10]: 92.3%
cell viability [11]: 121%
cell viability [12]: 87.3%
cell viability [13]: 86.7%
cell viability [14]: 101%
cell viability [15]: 85.5%
cell viability [16]: 90.3%
cell viability [17]: 85.2%
cell viability [18]: 86.3%
cell viability [19]: 93.4%
cell viability [20]: 82.9%
cell viability [21]: 81.4%
cell viability [22]: 81.3%
cell viability [23]: 80.4%
cell viability [24]: 95.5%
cell viability [25]: 98.8%
cell viability [26]: 88.5%
cell viability [27]: 102%
cell viability [28]: 103%
cell viability [29]: 90.9%
cell viability [30]: 99.4%
cell viability [31]: 88.2%
cell viability [32]: 95.4%
cell viability [33]: 89.8%

CCCc1nc(C(C)(C)O)c(C(=O)O)n1Cc1ccc(-c2ccccc2-c2nn[nH]n2)cc1
cell viability [1]: 97.7%
cell viability [2]: 111%
cell viability [3]: 107%
cell viability [4]: 114%
cell viability [5]: 119%
cell viability [6]: 120%
cell viability [7]: 149%
cell viability [8]: 115%
cell viability [9]: 113%
cell viability [10]: 119%
cell viability [11]: 126%
cell viability [12]: 107%
cell viability [13]: 103%
cell viability [14]: 105%
cell viability [15]: 110%
cell viability [16]: 105%
cell viability [17]: 125%
cell viability [18]: 123%
cell viability [19]: 113%
cell viability [20]: 112%
cell viability [21]: 114%
cell viability [22]: 124%
cell viability [23]: 106%
cell viability [24]: 104%
cell viability [25]: 115%
cell viability [26]: 116%
cell viability [27]: 114%
cell viability [28]: 117%
cell viability [29]: 124%
cell viability [30]: 113%
cell viability [31]: 128%
cell viability [32]: 126%
cell viability [33]: 112%

CC1(C)O[C@@H]2C[C@H]3[C@@H]4CCC5=CC(=O)C=C[C@]5(C)[C@@]4(F)[C@@H](O)C[C@]3(C)[C@]2(C(=O)CO)O1
cell viability [1]: 110%
cell viability [2]: 119%
cell viability [3]: 112%
cell viability [4]: 111%
cell viability [5]: 117%
cell viability [6]: 108%
cell viability [7]: 90.6%
cell viability [8]: 105%
cell viability [9]: 86.3%
cell viability [10]: 48.4%
cell viability [11]: 25.8%
cell viability [12]: 98.3%
cell viability [13]: 112%
cell viability [14]: 96.1%
cell viability [15]: 111%
cell viability [16]: 115%
cell viability [17]: 121%
cell viability [18]: 117%
cell viability [19]: 109%
cell viability [20]: 97.7%
cell viability [21]: 33.2%
cell viability [22]: 18.1%
cell viability [23]: 106%
cell viability [24]: 112%
cell viability [25]: 111%
cell viability [26]: 127%
cell viability [27]: 122%
cell viability [28]: 117%
cell viability [29]: 113%
cell viability [30]: 110%
cell viability [31]: 99.8%
cell viability [32]: 105%
cell viability [33]: 32.2%

OC[C@H]1O[C@@H](O[C@@H]2[C@@H](CO)O[C@](O)(CO)[C@H]2O)[C@H](O)[C@@H](O)[C@H]1O
cell viability [1]: 108%
cell viability [2]: 110%
cell viability [3]: 110%
cell viability [4]: 113%
cell viability [5]: 99.5%
cell viability [6]: 92.2%
cell viability [7]: 103%
cell viability [8]: 95.1%
cell viability [9]: 102%
cell viability [10]: 47.7%
cell viability [11]: 78.1%
cell viability [12]: 91.1%
cell viability [13]: 95.4%
cell viability [14]: 111%
cell viability [15]: 109%
cell viability [16]: 105%
cell viability [17]: 100%
cell viability [18]: 105%
cell viability [19]: 97.3%
cell viability [20]: 88.1%
cell viability [21]: 71.9%
cell viability [22]: 86.2%
cell viability [23]: 91.4%
cell viability [24]: 86.6%
cell viability [25]: 103%
cell viability [26]: 97.5%
cell viability [27]: 95.7%
cell viability [28]: 101%
cell viability [29]: 100%
cell viability [30]: 98.7%
cell viability [31]: 92.5%
cell viability [32]: 68.1%
cell viability [33]: 80.6%

CN(c1ncccc1CNc1nc(Nc2ccc3c(c2)CC(=O)N3)ncc1C(F)(F)F)[S+](C)(=O)[O-]
cell viability [12]: 112%
cell viability [13]: 113%
cell viability [14]: 115%
cell viability [15]: 105%
cell viability [16]: 116%
cell viability [17]: 116%
cell viability [18]: 99.3%
cell viability [19]: 103%
cell viability [20]: 97.7%
cell viability [21]: 93.9%
cell viability [22]: 18.7%
cell viability [23]: 104%
cell viability [24]: 107%
cell viability [25]: 116%
cell viability [26]: 106%
cell viability [27]: 117%
cell viability [28]: 117%
cell viability [29]: 124%
cell viability [30]: 104%
cell viability [31]: 114%
cell viability [32]: 86.5%
cell viability [33]: 20.6%
